Key:
AZD4320 = compound: CN(CC[C@H](CSC1=CC=CC=C1)NC2=C(C=C(C=C2)S(=O)(=O)NC(=O)C3=CC=C(C=C3)N4CCC(CC4)[C@H](C5=CC=CC=C5C6=CC=C(C=C6)Cl)O)S(=O)(=O)C(F)(F)F)CCO [AZD4320]; conditions: max 1 µM
Procedure, shortened: (§1)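 Cancer cell lines were dosed for 72 hours (final DMSO typically 0.2%) after 24 hours at 37°C and 5% CO2 in 1536-well plates containing 7.5 μl DMEM/F12 or RPMI with 10% FBS. Viability came from CellTiter-Glo 2.0 luminescence, scaled between blank-well and DMSO-well means, and dose responses were fitted to a two-parameter logistic curve with a non-linear mixed effects model. The single-agent IC50 was obtained from this fit.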

Lapatinib = compound: CS(=O)(=O)CCNCc1ccc(-c2ccc3ncnc(Nc4ccc(OCc5cccc(F)c5)c(Cl)c4)c3c2)o1 [Lapatinib]; conditions: max 10 µM
Procedure, shortened: as §1

AZD7648 = compound: Cc1cc2ncnn2cc1Nc1ncc2c(n1)n(C1CCOCC1)c(=O)n2C [AZD7648]; conditions: max 10 µM
Procedure, shortened: as §1

Palbociclib = compound: CC(=O)c1c(C)c2cnc(Nc3ccc(N4CCNCC4)cn3)nc2n(C2CCCC2)c1=O [Palbociclib]; conditions: max 10 µM
Procedure, shortened: as §1

AZD1390 = compound: CC(C)n1c(=O)n(C)c2cnc3cc(F)c(-c4ccc(OCCCN5CCCCC5)nc4)cc3c21 [AZD1390]; conditions: max 0.3 µM
Procedure, shortened: as §1

Crizotinib = compound: C[C@@H](Oc1cc(-c2cnn(C3CCNCC3)c2)cnc1N)c1c(Cl)ccc(F)c1Cl [Crizotinib]; conditions: max 10 µM
Procedure, shortened: as §1

AZD5363 = compound: C1CN(CCC1(C(=O)N[C@@H](CCO)C2=CC=C(C=C2)Cl)N)C3=NC=NC4=C3C=CN4 [AZD5363]; conditions: max 10 µM
Procedure, shortened: as §1

Alisertib = compound: COc1cc(Nc2ncc3c(n2)-c2ccc(Cl)cc2C(c2c(F)cccc2OC)=NC3)ccc1C(=O)O [Alisertib]; conditions: max 10 µM
Procedure, shortened: as §1

SN-38 = compound: CCc1c2c(nc3ccc(O)cc13)-c1cc3c(c(=O)n1C2)COC(=O)[C@]3(O)CC [SN-38]; conditions: max 0.3 µM
Procedure, shortened: as §1

AZD1775 = compound: C=CCn1c(=O)c2cnc(Nc3ccc(N4CCN(C)CC4)cc3)nc2n1-c1cccc(C(C)(C)O)n1 [AZD1775]; conditions: max 3 µM
Procedure, shortened: as §1

AZD5153 = compound: COc1nnc2ccc(N3CCC(c4ccc(OCCN5CCN(C)C(=O)[C@H]5C)cc4)CC3)nn12 [AZD5153]; conditions: max 1 µM
Procedure, shortened: as §1

[1] = compound: O=C(Nc1ccc2[nH]nc(-c3ccncc3)c2c1)[C@@H]1CCN(CC(=O)N2CCN(c3ccc(-c4ncccn4)cc3)CC2)C1; conditions: max 5 µM
Procedure, shortened: as §1

AZD8186 = compound: C[C@@H](Nc1cc(F)cc(F)c1)c1cc(C(=O)N(C)C)cc2c(=O)cc(N3CCOCC3)oc12 [AZD8186]; conditions: max 10 µM
Procedure, shortened: as §1

Prexasertib = compound: COc1cccc(OCCCN)c1-c1cc(Nc2cnc(C#N)cn2)n[nH]1 [Prexasertib]; conditions: max 1 µM
Procedure, shortened: as §1

AZD6738 = compound: C[C@@H]1COCCN1C2=NC(=NC(=C2)C3(CC3)[S@](=N)(=O)C)C4=C5C=CNC5=NC=C4 [AZD6738]; conditions: max 10 µM
Procedure, shortened: as §1

AZD0156 = compound: CN(C)CCCOc1ccc(-c2ccc3ncc4c(c3c2)n(C2CCOCC2)c(=O)n4C)cn1 [AZD0156]; conditions: max 3 µM
Procedure, shortened: as §1

Doxorubicin = compound: COc1cccc2c1C(=O)c1c(O)c3c(c(O)c1C2=O)C[C@@](O)(C(=O)CO)C[C@@H]3O[C@H]1C[C@H](N)[C@H](O)[C@H](C)O1 [Doxorubicin]; conditions: max 1 µM
Procedure, shortened: as §1

Paclitaxel = compound: CC(=O)O[C@H]1C(=O)[C@@]2(C)[C@H]([C@H](OC(=O)c3ccccc3)[C@]3(O)C[C@H](OC(=O)[C@H](O)[C@@H](NC(=O)c4ccccc4)c4ccccc4)C(C)=C1C3(C)C)[C@]1(OC(C)=O)CO[C@@H]1C[C@@H]2O [Paclitaxel]; conditions: max 3 µM
Procedure, shortened: as §1

AZD2811 = compound: CCN(CCO)CCCOc1ccc2c(Nc3cc(CC(=O)Nc4cccc(F)c4)[nH]n3)ncnc2c1 [AZD2811]; conditions: max 1 µM
Procedure, shortened: as §1

AZD5991 = compound: Cc1c2c(nn1C)CSCc1cc(n(C)n1)CSc1cc(c3ccccc3c1)OCCCc1c(C(=O)O)n(C)c3c-2c(Cl)ccc13 [AZD5991]; conditions: max 1 µM
Procedure, shortened: as §1

Trametinib = compound: CC(=O)Nc1cccc(-n2c(=O)n(C3CC3)c(=O)c3c(Nc4ccc(I)cc4F)n(C)c(=O)c(C)c32)c1 [Trametinib]; conditions: max 1 µM
Procedure, shortened: as §1

5-Fluorouracil = compound: O=c1[nH]cc(F)c(=O)[nH]1 [5-Fluorouracil]; conditions: max 20 µM
Procedure, shortened: as §1

Savolitinib = compound: C[C@@H](c1ccc2nccn2c1)n1nnc2ncc(-c3cnn(C)c3)nc21 [Savolitinib]; conditions: max 1 µM
Procedure, shortened: as §1

Olaparib = compound: O=C(c1cc(Cc2n[nH]c(=O)c3ccccc23)ccc1F)N1CCN(C(=O)C2CC2)CC1 [Olaparib]; conditions: max 10 µM
Procedure, shortened: as §1

Taselisib = compound: Cc1nc(-c2cn3c(n2)-c2ccc(-c4cnn(C(C)(C)C(N)=O)c4)cc2OCC3)n(C(C)C)n1 [Taselisib]; conditions: max 10 µM
Procedure, shortened: as §1

Etoposide = compound: COc1cc([C@@H]2c3cc4c(cc3[C@@H](O[C@@H]3O[C@@H]5CO[C@@H](C)O[C@H]5[C@H](O)[C@H]3O)[C@H]3COC(=O)[C@H]23)OCO4)cc(OC)c1O [Etoposide]; conditions: max 10 µM
Procedure, shortened: as §1

Dasatinib = compound: CC1=C(C(=CC=C1)Cl)NC(=O)C2=CN=C(S2)NC3=CC(=NC(=N3)C)N4CCN(CC4)CCO [Dasatinib]; conditions: max 2 µM
Procedure, shortened: as §1

Selumetinib = compound: Cn1cnc2c(F)c(Nc3ccc(Br)cc3Cl)c(C(=O)NOCCO)cc21 [Selumetinib]; conditions: max 10 µM
Procedure, shortened: as §1

Gefitinib = compound: COc1cc2ncnc(Nc3ccc(F)c(Cl)c3)c2cc1OCCCN1CCOCC1 [Gefitinib]; conditions: max 10 µM
Procedure, shortened: as §1

SRA737 = compound: N#Cc1cnc(Nc2cc(NC[C@H]3CNCCO3)c(C(F)(F)F)cn2)cn1 [SRA737]; conditions: max 10 µM
Procedure, shortened: as §1

Carboplatin = compound: C1CC(C1)(C(=O)[O-])C(=O)[O-].N.N.[Pt+2] [Carboplatin]; conditions: max 10 µM
Procedure, shortened: as §1

SG3199 = compound: CC1=CN2[C@@H](C1)C=NC3=CC(=C(C=C3C2=O)OC)OCCCCCOC4=C(C=C5C(=C4)N=C[C@@H]6CC(=CN6C5=O)C)OC [SG3199]; conditions: max 0.001 µM
Procedure, shortened: as §1

MK-2206 = compound: NC1(c2ccc(-c3nc4ccn5c(=O)[nH]nc5c4cc3-c3ccccc3)cc2)CCC1 [MK-2206]; conditions: max 10 µM
Procedure, shortened: as §1

Venetoclax = compound: CC1(C)CCC(CN2CCN(c3ccc(C(=O)NS(=O)(=O)c4ccc(NCC5CCOCC5)c([N+](=O)[O-])c4)c(Oc4cnc5[nH]ccc5c4)c3)CC2)=C(c2ccc(Cl)cc2)C1 [Venetoclax]; conditions: max 1 µM
Procedure, shortened: as §1

Gemcitabine = compound: Nc1ccn([C@@H]2O[C@H](CO)[C@@H](O)C2(F)F)c(=O)n1 [Gemcitabine]; conditions: max 0.3 µM
Procedure, shortened: as §1

WM1552C (Melanoma)
IC50, cell viability 72 h (AZD4320): > 1 µM
IC50, cell viability 72 h (Lapatinib): > 10 µM
IC50, cell viability 72 h (AZD7648): > 10 µM
IC50, cell viability 72 h (Palbociclib): > 10 µM
IC50, cell viability 72 h (AZD1390): > 0.3 µM
IC50, cell viability 72 h (Crizotinib): 6.26 µM
IC50, cell viability 72 h (AZD5363): > 10 µM
IC50, cell viability 72 h (Alisertib): 7.48 µM
IC50, cell viability 72 h (SN-38): 0.152 µM
IC50, cell viability 72 h (AZD1775): 1.76 µM
IC50, cell viability 72 h (AZD5153): > 1 µM
IC50, cell viability 72 h [1]: > 5 µM
IC50, cell viability 72 h (AZD8186): > 10 µM
IC50, cell viability 72 h (Prexasertib): 0.0344 µM
IC50, cell viability 72 h (AZD6738): > 10 µM
IC50, cell viability 72 h (AZD0156): > 3 µM
IC50, cell viability 72 h (Doxorubicin): > 1 µM
IC50, cell viability 72 h (Paclitaxel): 0.0515 µM
IC50, cell viability 72 h (AZD2811): > 1 µM
IC50, cell viability 72 h (AZD5991): 0.759 µM
IC50, cell viability 72 h (Trametinib): 0.158 µM
IC50, cell viability 72 h (5-Fluorouracil): > 20 µM
IC50, cell viability 72 h (Savolitinib): > 1 µM
IC50, cell viability 72 h (Olaparib): > 10 µM
IC50, cell viability 72 h (Taselisib): 8.74 µM
IC50, cell viability 72 h (Etoposide): > 10 µM
IC50, cell viability 72 h (Dasatinib): 1.81 µM
IC50, cell viability 72 h (Selumetinib): 7.99 µM
IC50, cell viability 72 h (Gefitinib): > 10 µM
IC50, cell viability 72 h (SRA737): 6.18 µM
IC50, cell viability 72 h (Carboplatin): > 10 µM
IC50, cell viability 72 h (SG3199): > 0.001 µM
IC50, cell viability 72 h (MK-2206): > 10 µM
IC50, cell viability 72 h (Venetoclax): > 1 µM
IC50, cell viability 72 h (Gemcitabine): 0.0522 µM

JHH-2 (Hepatocellular Carcinoma)
IC50, cell viability 72 h (AZD4320): > 1 µM
IC50, cell viability 72 h (Lapatinib): > 10 µM
IC50, cell viability 72 h (AZD7648): > 10 µM
IC50, cell viability 72 h (Palbociclib): > 10 µM
IC50, cell viability 72 h (AZD1390): > 0.3 µM
IC50, cell viability 72 h (Crizotinib): > 10 µM
IC50, cell viability 72 h (AZD5363): 4.77 µM
IC50, cell viability 72 h (Alisertib): > 10 µM
IC50, cell viability 72 h (SN-38): 0.0776 µM
IC50, cell viability 72 h (AZD1775): 1.86 µM
IC50, cell viability 72 h (AZD5153): > 1 µM
IC50, cell viability 72 h [1]: 3.44 µM
IC50, cell viability 72 h (AZD8186): 0.297 µM
IC50, cell viability 72 h (Prexasertib): 0.0575 µM
IC50, cell viability 72 h (AZD6738): 6.8 µM
IC50, cell viability 72 h (AZD0156): > 3 µM
IC50, cell viability 72 h (Doxorubicin): > 1 µM
IC50, cell viability 72 h (Paclitaxel): 0.365 µM
IC50, cell viability 72 h (AZD2811): > 1 µM
IC50, cell viability 72 h (AZD5991): > 1 µM
IC50, cell viability 72 h (Trametinib): 0.181 µM
IC50, cell viability 72 h (5-Fluorouracil): > 20 µM
IC50, cell viability 72 h (Savolitinib): > 1 µM
IC50, cell viability 72 h (Olaparib): > 10 µM
IC50, cell viability 72 h (Taselisib): 3.05 µM
IC50, cell viability 72 h (Etoposide): > 10 µM
IC50, cell viability 72 h (Dasatinib): 0.188 µM
IC50, cell viability 72 h (Selumetinib): > 10 µM
IC50, cell viability 72 h (Gefitinib): > 10 µM
IC50, cell viability 72 h (SRA737): > 10 µM
IC50, cell viability 72 h (Carboplatin): > 10 µM
IC50, cell viability 72 h (SG3199): > 0.001 µM
IC50, cell viability 72 h (MK-2206): 5.26 µM
IC50, cell viability 72 h (Venetoclax): > 1 µM
IC50, cell viability 72 h (Gemcitabine): > 0.3 µM

KYSE-220 (Esophageal Squamous Cell Carcinoma)
IC50, cell viability 72 h (AZD4320): > 1 µM
IC50, cell viability 72 h (Lapatinib): 4.25 µM
IC50, cell viability 72 h (AZD7648): > 10 µM
IC50, cell viability 72 h (Palbociclib): > 10 µM
IC50, cell viability 72 h (AZD1390): > 0.3 µM
IC50, cell viability 72 h (Crizotinib): 5.48 µM
IC50, cell viability 72 h (AZD5363): > 10 µM
IC50, cell viability 72 h (Alisertib): 9.2 µM
IC50, cell viability 72 h (SN-38): 0.0175 µM
IC50, cell viability 72 h (AZD1775): 0.355 µM
IC50, cell viability 72 h (AZD5153): 0.358 µM
IC50, cell viability 72 h [1]: > 5 µM
IC50, cell viability 72 h (AZD8186): > 10 µM
IC50, cell viability 72 h (Prexasertib): 0.0163 µM
IC50, cell viability 72 h (AZD6738): 1.19 µM
IC50, cell viability 72 h (AZD0156): > 3 µM
IC50, cell viability 72 h (Doxorubicin): 0.0943 µM
IC50, cell viability 72 h (Paclitaxel): 0.0424 µM
IC50, cell viability 72 h (AZD2811): > 1 µM
IC50, cell viability 72 h (AZD5991): > 1 µM
IC50, cell viability 72 h (Trametinib): 0.287 µM
IC50, cell viability 72 h (5-Fluorouracil): > 20 µM
IC50, cell viability 72 h (Savolitinib): > 1 µM
IC50, cell viability 72 h (Olaparib): > 10 µM
IC50, cell viability 72 h (Taselisib): 1.22 µM
IC50, cell viability 72 h (Etoposide): 2.52 µM
IC50, cell viability 72 h (Dasatinib): > 2 µM
IC50, cell viability 72 h (Selumetinib): 9.2 µM
IC50, cell viability 72 h (Gefitinib): > 10 µM
IC50, cell viability 72 h (SRA737): > 10 µM
IC50, cell viability 72 h (Carboplatin): > 10 µM
IC50, cell viability 72 h (SG3199): > 0.001 µM
IC50, cell viability 72 h (MK-2206): > 10 µM
IC50, cell viability 72 h (Venetoclax): > 1 µM
IC50, cell viability 72 h (Gemcitabine): 0.033 µM

Source: the supplement of paper PMC11061612
